Measured values published in US20160298082A1, “METHOD FOR OBTAINING IMMUNO-STIMULATORY DENDRITIC CELLS” (TRANSIMMUNE AG, priority 2013, published 2016).
Entries after “also recorded” stand apart in the source; their conditions may differ.

Assays:
[1] = tested on: lymphocytes; assay: Apoptosis of ECP-processed lymphocytes after overnight incubation; format: cell-based, human; details: UVA-activated 8-MOP; APO2-PE, Trypan blue and/or annexin/propidium iodide
[2] = tested on: MoDC; assay: Cytokine quantification in MoDC supernatants after LPS stimulation (magnetic bead multiplex); format: cell-based, human
Procedure: Lymphocytes were treated with 8-MOP (100 ng/mL) and UVA (1 J/cm^2), washed with PBS, and co-cultured in complete media at 37° C. and 5% CO2 with either PUVA-treated or untreated-MoDC in a ratio of 5 or 10 lymphocytes to 1 MoDC. MoDC treated for 24 hr with 100 nM dexamethasone (Sigma) served as the positive control group. After 24 hr, cells were harvested and MoDC were re-purified. […] CD11c^+ MoDC were re-plated at 0.5-1.0×10^6 cells/mL in complete media and stimulated with 100 ng/mL LPS (Sigma). 24 hr after LPS stimulation, cells were harvested for RNA isolation and immunophenotyping, and supernatants were collected for cytokine quantification.
(§1) Culture supernatants were analyzed in a multiplex format utilizing magnetic beads to IL-6, IL-8, IL-10, IL-12p70, IFN-γ, TNF-α, RANTES, MCP-1, and MIP-1β (BioRad Laboratories). For siRNA experiments, supernatants were analyzed with enzyme-linked immunosorbent assay (ELISA) kits for IL-10 (R&D Systems) and IL-12p70 (Enzo Life Science). All samples and standards were run in duplicate and analyzed using the LUMINEX 200 (LUMINEX), or the BioTek EL800 (BioTek).

[3] = tested on: lymphocytes; assay: Apoptosis of lymphocytes (Annexin-V/7-AAD); format: cell-based, human
[4] = tested on: MoDC; assay: IL-10 and IL-12p70 ELISA in siRNA experiments; format: cell-based, human; details: siRNA experiment, not transfected
Procedure: Silencer select pre-designed and validated GILZ siRNA (Invitrogen), with off-target prediction algorithms, was used to knockdown GILZ expression. Mo-DC were transfected using Lipofectamine RNAiMAX Reagent (Invitrogen). RNAi duplex and lipofectamine reagent were incubated together for 20 min, then added to MoDC cultures and incubated for 2 hr at 37° C. and 5% CO2. Transfected MoDC were treated in an identical fashion as described for the MoDC/lymphocyte co-cultures. MoDC were also transfected with scramble siRNA.
as §1

[5] = tested on: GILZ; assay: GILZ mRNA expression in CD11c+ MoDC (quantitative real-time PCR); format: cell-based, human; details: relative to untreated MoDC cultured alone; 24 hr (FIG. 13B); dex 100 nM; PUVA 100 ng/mL, 1 J/cm^2
Procedure: Monocytes were cultured at a density of 5×10^6 cells/mL in 6- and 12-well polystyrene tissue culture plates at 37° C. and 5% CO2 in RPMI-1640 (Gibco) supplemented with heat-inactivated 15% AB serum (Gemini) and 1% penicillin/streptomycin (now referred to as complete media). 800 IU/mL recombinant human GM-CSF (R&D Systems) and 1000 IU/mL recombinant human IL-4 (R&D Systems) were added to cultures for 36 hr to induce monocyte to DC differentiation as described.
Non-adherent cells (purity: 66.0±4.5% CD3^+) removed during plastic adherence will now be generally referred to as lymphocytes. Lymphocytes were treated with 8-MOP (100 ng/mL) and UVA (1 J/cm^2), washed with PBS, and co-cultured in complete media at 37° C. and 5% CO2 with either PUVA-treated or untreated-MoDC in a ratio of 5 or 10 lymphocytes to 1 MoDC. […] 24 hr after LPS stimulation, cells were harvested for RNA isolation and immunophenotyping, and supernatants were collected for cytokine quantification.
RNA was isolated from CD11c^+ MoDC using QIAShredder columns (QIAGEN) and the RNeasy Mini Kit (QIAGEN) with on-column Dnase I treatment (QIAGEN). RNA yield and purity were assessed using a NanoDrop ND-1000 spectrophotometer. cDNA was obtained using the High Capacity cDNA Reverse Transcription Kit (Applied Biosystems) in a 96-well thermocycler (MJ Research PTC-200). […]

[6] = tested on: CD11c+ cells; assay: Apoptosis / cell death of CD11c+ MoDC (Annexin-V/7-AAD); format: cell-based, human
Procedure: Immunofluorescence was analyzed using a FACSCalibur L (BD Biosciences) within 2 hr of fixation with 2% paraformaldehyde.

[7] = tested on: immature MoDC; details: 24 hr
[8] = tested on: GILZ; assay: GILZ mRNA expression in CD11c+ MoDC (quantitative real-time PCR); format: cell-based, human
[9] = tested on: monocytes; assay: Static co-culture of monocytes with platelets; format: cell-based, human; details: platelets activated with thrombin; no flow; 18 hours
Procedure: Experiments involving co-cultures of monocytes with additional platelets were performed as described in the Overnight Culture section, with a few necessary modifications. Following Ficoll-Hypaque separation, mononuclear cells were resuspended in 30% AB serum/RMPI to a final concentration of 10×10^6 cells/ml, of which 1 ml was allocated to each well of a 16-well plate. An additional 1 ml of platelets (suspended in RPMI, at 2× the desired final concentration) or RPMI without platelets was then added to each well. To activate platelets, 500 μl containing 2 units of thrombin was added to half the wells, and 500 μl of RPMI was added to the others to balance the volume. Cells were then incubated as described previously.

[10] = tested on: P-selectin; assay: Surface expression of P-selectin on platelets (platelet activation); format: cell-based, human; details: platelets activated with thrombin (positive control)
Source text: Monoclonal antibodies for immunophenotyping included CD14 (LPS receptor; monocytes), CD11c (integrin subunit; monocytes and DC), HLA-DR (class II MHC molecule), CD83 (DC marker), CD62p (P-selectin; activated platelets), and CD61 (integrin subunit; platelets). Antibodies were obtained from Beckman Coulter (CD14, CD11c, HLADR, CD83) or Sigma (CD62p, CD61) and used at their pre-determined optimal dilutions. Background staining was established with appropriate isotype controls, and immunofluorescence was analyzed using a FC500 flow cytometer (Beckman Coulter). Two-color membrane staining was performed by adding the pre-determined optimal concentrations of both antibodies directly conjugated to FITC or PE and incubating for 20 min at 4° C., followed by washing to remove unbound antibodies. Combined membrane and cytoplasmic staining was performed following manufacturer's instructions for cell fixation and permeabilization (Intraprep kit, Beckman Coulter).
Upon encountering stimuli such as damaged endothelium or thrombin, platelets become activated and almost instantaneously translocate these intracellular proteins to the plasma membrane (Kaplan et al., 1979, see references). […] To test this hypothesis, surface expression of P-selectin, a well-known marker of platelet activation, was assessed before and after adhesion. […]

[11] = 24 hr after LPS stimulation, vs untreated MoDC
[12] = 100 ng/mL and 1 J/cm^2, 24 hr after treatment
[13] = 8-MOP 0 to 200 ng/mL, UVA 1 or 2 J/cm2
[14] = product of 8-MOP and UVA exceeded 100

In the case of `COc1c2occc2cc2ccc(=O)oc12` [8-MOP, 8-methoxypsoralen], the “ECP-processed lymphocytes apoptotic after overnight incubation” value [1] is reported as 99%, the IL-10 production [2, 11] is reported as “increased production of IL-10” and the “Production of pro-inflammatory cytokines and chemokines” value [2, 11] is reported as “decreased production of all pro-inflammatory cytokines and chemokines tested, except TNF-α and IFN-γ”. The “Ratio of IL-10 to IL-12p70, MoDC cultured alone” value ([2]; after LPS, untreated MoDC 6.7) was 38.7, the “Ratio of IL-10 to IL-12p70, PUVA-DC exposed to ApoL” value ([2]; after LPS, untreated MoDC 6.7) was 114.9 and the Early apoptotic lymphocytes [3, 12] was 44.3%. The Late apoptotic lymphocytes [3, 12] was 33.7%, the “Time at which lymphocytes display Annexin-V after treatment” value ([3]; 1 J/cm^2 and 100 ng/mL (data not shown)) was at most 2 h and the “Lymphocytes Annexin-V+” value ([3]; 24 hr after treatment) was 64.3±3.2%. The “IL-10 to IL-12p70 ratio, non-transfected MoDC cultured alone” value [4] was 8.4, the “IL-10 to IL-12p70 ratio, non-transfected PUVA-DC exposed to ApoL” value [4] was 28.4 and the “GILZ up-regulation, MoDC cultured alone” value [5] was 2.78 fold. For the same compound, the “Late apoptotic CD11c+ cells” value ([6]; 1 J/cm^2, all doses of 8-MOP tested, 24 hr) was “less than 13%”, the “Late apoptotic CD11c+ cells” value ([6]; 2 J/cm^2, all doses of 8-MOP tested, 24 hr) was “less than 16%” and the “Early apoptotic CD11c+ cells compared to untreated MoDC” value ([6]; 2 J/cm^2 and 200 ng/mL, 24 hr) was “increase”. The Cell death ([6]; 4 J/cm^2 UVA (data not shown)) was “high levels of non-specific cell death”, the “Membrane CD83, CD80 and CD86 expression (qualitative)” value [7, 13] was “down-regulates” and the “Membrane HLA-DR expression (qualitative)” value [7, 13] was “up-regulates”. For the same compound, the “Increase of HLA-DR expression” value [7, 14] was 38%, the “Reduction of CD80 expression” value [7, 14] was 30% and the “Reduction of CD83 expression” value [7, 14] was 31%. The “Reduction of CD86 expression” value [7, 14] was 54%, the GILZ expression ([8]; 0.5 J/cm^2 UVA) was “no effect on GILZ expression until the 8-MOP concentration reached 200 ng/mL” and the GILZ up-regulation ([8]; 1 J/cm^2 UVA, 100 ng/mL 8-MOP, 24 hr) was 2.9 fold. The GILZ up-regulation ([8]; 1 J/cm^2 UVA, 200 ng/mL 8-MOP, 24 hr) was 4.4 fold, the “8-MOP concentration at which dose-dependent GILZ up-regulation starts” value ([8]; 2 J/cm^2 UVA) was 50 ng/mL and the GILZ expression ([8]; 8-MOP alone, without UVA, 24 hr) was “did not effect GILZ expression”. The “Time GILZ remains significantly elevated” value ([8]; 8-MOP and UVA light) was 72 h, the “Time of peak GILZ induction after treatment” value ([8]; 8-MOP and UVA light) was 24 h and the “GILZ expression in immature MoDC after 8-MOP plus UVA light (qualitative)” value ([8]; 24 hr after PUVA) was “up-regulates GILZ”. The GILZ expression increase ([8]; combination of 8-MOP and UVA light, relative to untreated MoDC (FIG. 10E)) was 5.5 fold, the GILZ up-regulation ([8]; product of 8-MOP and UVA = 100) was 3 fold and the GILZ up-regulation ([8]; product of 8-MOP and UVA = 200) was 4.8 fold. The GILZ up-regulation ([8]; product of 8-MOP and UVA = 400) was 8.6 fold.

With thrombin the “DC differentiation of monocytes under static conditions” value [9] was “neither activated nor non-activated platelets were capable of inducting DC differentiation; also recorded: did not cause a discernible difference”, the “P-selectin mean fluorescence intensity (MFI)” value [10] was 108.3±23 and the “Platelets P-selectin positive” value [10] was 71±18%.
